This series can be described thus: Plasma protein binding of cysteamine. Particulars: human plasma proteins, predominantly albumin. The format is in vitro ADME.

Regarding `NCCS` [cysteamine], the free fraction (fraction unbound) – broadly, the share of the substance not bound to proteins or other matrix – was around 0.48.
